Assay results taken from paper PMC7247319, “The mitochondria-targeted peptide SS-31 binds lipid bilayers and modulates surface electrostatics as a key component of its mechanism of action” (The Journal of Biological Chemistry, 2020).
Where a SMILES comes first, the peptide text is derived from it. [ ]: non-standard residue; d: D form. Dmt = Cc1cc(O)cc(C)c1C[C@H](N)C(=O)O

System: isolated mitochondria
Assay: Respirometry (oxygen consumption) of mitochondria under calcium stress
Design: species or system S. cerevisiae
Details: mitochondria 1 mg ml^−1, SS-31 54.4 μM, CaCl2 1 mM, preincubated on ice 20 min; n = 10–12
Method: Figure 7. SS peptide effects on Ca^2+-membrane interactions and mitochondrial cation stress. A, profiles of surface potential decay (top) and ion distribution (bottom) based on GCS theory in the presence or absence of SS-31 (see supporting Results H for model description). B, effect of SS peptides on Ca^2+ accumulation at model membrane interfaces. Time course measurements of CG-5N emission were performed in solutions with LUVs (20 mol % TOCL in host POPC background, [lipid]^eff = 100 μM) prebound with SS peptide at the indicated concentration followed by titration of CaCl2 in increments of 1 nmol at 20-s intervals starting at t = 60 s. C and D, effect of SS peptides on mitochondrial Ca^2+ uptake. […] Spectral deconvolution yielded the indicated components (see Fig. S19, A and B), which were used to quantify the area ratios of L2/iso in F (values shown are means ± S.D. (error bars) (n = 3). G, respirometry analysis. Mitochondria (1 mg ml^−1) were treated in the absence or presence of SS-31 (54.4 μM) or CaCl2 (1 mM) as indicated and measured for state 2 respiration (n = 10–12 each).
Finally, we measured the effects of SS peptides on mitochondrial calcium stress that may occur independently of Ca^2+ uptake into the matrix. […] To corroborate these findings, we measured mitochondrial oxygen consumption rates under similar conditions of SS peptide treatment and calcium stress. […]

Cc1cc(O)cc(C)c1C[C@H](NC(=O)[C@H](N)CCCNC(=N)N)C(=O)N[C@@H](CCCCN)C(=O)N[C@@H](Cc1ccccc1)C(N)=O [SS-31, D-Arg-2′6′-dimethyl-Tyr-Lys-Phe-NH2] (H-[dR][Dmt]KF-NH2)
effect on calcium-induced increase in basal (state 2) respiration: prevented
